Where two headings read alike, the source gives them in different places.
How the values were obtained:
severe IBD = assay type: in vivo, human
From the text: During the year following acute bowels infection and inflammation described in above (Example 1 e) they were placed by a specialist MD into queue for demanding operation to remove inflammation prone part from their bowels. While waiting for this operation (roughly a year from above described previous serious bowels inflammation (IBD)) S4 got serious IBD again. This happened as a follow up of two-week business trip during which the diet was not at all optimal and working was rather intensive.
By Saturday the symptoms were so severe that S4 could not walk properly. It was decided that […] rests for the weekend and goes to a doctor on Monday morning.
Because based on Example 1 e it is already known that the DGA Activation can efficiently reduce IBD in S4, it was decided that S4 starts using DGA immediately to reduce the inflammation. (Also, all other information presented in this application, including all other experiments and dose response analyses were available already, except for Example 1 g.) Initial dose was set relatively high because the inflammation was very severe and because it is known from all other experiments that there were no negative effects for S4 from the DGA Activation. 3×200 mg mixed into 2 dl of water was taken 3 times during Saturday, first dose at 0300 pm, next dose 2 hours thereafter and the last dose 4 hours after the second dose, i.e. at 0900 pm. Inflammatory symptoms remained high but fever reduced from 36.80 Celsius (before DGA activation) to 36.03 by 0939 pm. Paracetamol (1000 mg) was taken after the last fever measurement thus not affecting the decline. Another paracetamol was taken earlier the day at 0346 pm.

metabolism of alcohol = details: administered with ethanol to rats; cited from earlier work
[1] = system: eimeria acervulina, eimeria maxima and eimeria tenella; assay: Coccidial challenge in broiler chickens, Example 1g; assay type: in vivo; details: for overall lesion score, difference to 0-control: day 21
fever = assay: Acute fever response in two humans under infection, Example 4; assay type: in vivo, human
Procedure: FIG. 11: Numerical values of short term reduction in fever in disease after the DGA Activation (administration approximately 300 mg of D-glyceric acid mixed in water as calcium salt (=2× 200 mg of DGAcs). The results in this table are presented graphically in FIG. 5 and explained in Example 4. Additional Notes: 300 mg of D-glyceric acid is more precisely the same as 430 mg of calcium salt dehydrate formulation, because one calcium atom and 2 water molecules make up some 30% of the total molecular weight. *) Reduction in fever materialized but the symptoms of the disease e.g. pain remained. **) Rather stressful “absent day from work arrangements” by e-mail between 0 minutes and 15 minutes' measurements could possibly have kept fever up.
In Example 4 acute 15 min, 30 min, etc. fever responses of the DGA Activation in two individual under viral and/or bacterial infection (subjects S1 and S4 from e.g. Examples 1b-1f) were measured. Results are presented in graphical format in FIG. 5 and in numeric format in FIG. 11. The measurements of body temperatures after the DGA Activation were made in physiological state where infections (diseases) continue but they have nevertheless more or less stabilized. In this kind of a situation the immune system is activated above healthy and/or subclinical level. The objective was to verify possible spillover effects from reduction in inflammation and in oxidative stress towards fever. At the same the target was to gain more info on the size of suitable administration. (Before initiating any human tests full proof of safety was received from 3 week in vivo experiments with rats. The doses used in these clinical tests are at maximum less than 5% of the safe doses with rats in the 3-week safety tests.)

[2] = system: acute bowels inflammation caused by diverticulitis; assay: Healing from acute inflammatory bowels disease (diverticulitis) in S4, Example 1e; assay type: in vivo, human
From the text: In Example 1e the resolution of gastrointestinal tract infection in another subject 4 (S4) has been shown. Like in S1 also in S4 the HO-1 pathway is clearly activated by the DGA Activation. This is indirectly shown by the clear reduction of blood bilirubin in Table 1e. […] During last few years these seldom but acute inflammations in the gastrointestinal tract have been mostly in the colon and caused by inflammation in Colonic diverticula. […] The only functioning therapy for inflammatory bowels disease has been the administration of strong intravenous antibiotics.
Like other tests with unhealthy humans also this test was done because there were no other efficient substances available. When symptoms of increased bowels inflammation/diverticulosis started S4 was on holiday abroad with very difficult access to any specialized doctor not to mention any hospital. […] Simultaneously with inflammatory symptoms and maybe partially enhancing them S4 experienced constipation.
By Saturday night on the 4th day of gradually increasing acute inflammation in the colon, S4 decided to test whether DGA Activation in combination with paracetamol would assist in resolving this already rather serious inflammation. There were no other available options at that moment. This decision was also supported by confidential information received on positive results with S1 (Examples 1b and 1c).
Saturday night at 0737 pm first 260 mg of D-glyceric acid calcium salt mixed into water was taken with 2×500 mg of paracetamol. Another additional 260 mg dose of DGAcs mixed into water was taken the same night at 1020 pm. Altogether the starting dose was 9 mg/kg i.e. relatively high. High initial dose was chosen because of high level of inflammation.

In the case of `O=C(O)[C@H](O)CO` [DGA, D-glyceric acid], the “time to restoring defecation” value (severe IBD; S4) is reported as 12 to 16 h, the “Blood CRP” value (severe IBD; S4, Friday 1100 am) is reported as 11 and the CRP level (severe IBD; S4, Monday 0030 pm, 3×200 mg four times a day) is reported as 85. The fever (severe IBD; S4, Saturday 0939 pm after 3 doses of 3×200 mg, 36.80 before) was 36.03 Celsius, the fever (severe IBD; S4, Sunday 0115 pm, normal 36.1) was 35.83 and the fever (severe IBD; S4, Sunday 0145) was 36.16. The CRP (severe IBD; S4, Wednesday noon, without antibiotics) was 22, the side effects (severe IBD; in vivo) was “did not cause any side effects” and the “decline of blood corticosterone compared to 0-Control” value (corticosterone, IL-6; 9 mg/kg of body weight/day of DGAcs in feed, 3 weeks, N=30, p-value=0.021) was ~40%. The fat formation (corticosterone, IL-6; 3-5 week feeding study, N=144) was “fat formation is not increased”, the “average IL-6 levels compared to 0-control” value (corticosterone, IL-6; 21-28 days, not statistically significant, p-value=0.12) was “lower average IL-6 levels” and the late mortality (corticosterone, IL-6; earlier broiler chicken experiment without infection, 1-2% in other groups) was “no mortality in DGA groups”. For the same compound, the metabolism of alcohol (metabolism of alcohol) was “expedited the metabolism of alcohol”, the “mortality after 14 days” value ([1]; DGA1 group) was “no mortality” and the “oocyst count at 7 and 11 days post infection” value ([1]; DGA1 group) was “decreased in DGA1 group already in 7 days to similar levels than in P-control”. The “oocyst count at 5 days (acute phase)” value ([1]; DGA1 group) was “less than in 0-control”, the “feed conversion rate (FCR) vs 0-control” value ([1]; DGA1 group, appr. 9 mg/kg/day DGAcs in feed, 14-35, 21-35, 28-35 days, p-values 0.04 to 0.05) was “statistically significantly better” and the “overall lesion score, difference to 0-control” value ([1]; DGA1 group) was “statistically significant only in P-control”. The “body weight gain (14-35 days) vs 0-control” value ([1]; DGA1 group, p-value 0.002) was “statistically very significantly higher”, the “difference in oocyst counts after the infection vs 0-control” value ([1]; DGA1 group, pairwise t-test p 0.04) was “statistically significant” and the “number of oocyst in 7 and 11 day measurements” value ([1]; DGA½ group) was “declined to almost similar levels than in P-control”. For the same compound, the “feed conversion rate (FCR) vs 0-control” value ([1]; DGA½ group, appr. 4.5 mg/kg/day) was “better compared to 0-control”, the “overall lesion score, difference to 0-control” value ([1]; DGA½ group) was “statistically significant only in P-control” and the “mortality after 14 days” value ([1]; DGA½ group, one bird clearly ill at slaughtering) was “no mortality”. For the same compound, the “difference in oocyst counts after the infection vs 0-control” value ([1]; DGA½ group, pairwise t-test p 0.03) was “statistically significant”, the “reducing fever due to infection” value (fever; 2×200 mg oral dose mixed into water) was “very effective in reducing fever” and the “immediate impact on fever” value (fever; S1, 1×200 mg, Monday 0908 pm) was “didn't seem to have any significant immediate impact on fever”. For the same compound, the return of fever (fever; S1 and S4) was “returns almost to the starting level in 1 hour or at least in 1.5 hours”, the “time to reduction of fever” value (fever; S1 and S4, 2×200 mg of DGAcs in water) was 15 to 30 min and the decline of fever (fever; statistically very significant) was “modest”. For the same compound, the “time needed to turn the inflammatory process clearly down” value ([2]; S4) was ~36 h, the defecation ([2]; S4, Sunday 0910 am, morning after 2×260 mg DGAcs with 2×500 mg paracetamol) was “could defecate (almost normally) for the first time in 3 days” and the pains in bowels ([2]; S4, Wednesday morning, after 240 mg twice a day) was “All the pains in bowels had disappeared”.

— patent publication US20190008810A1, “METHOD FOR PREVENTION, TREATMENT AND ALLEVIATION OF INFECTIOUS DISEASES AND DISORDERS” (REPLICON HEALTH OY, priority 2016, published 2019)
